# Measurements published in patent US6495560B1, “Vitronectin receptor antagonist” (SmithKline Beecham Corporation, priority 1998, dated 2002).
# Target: T1, αvβ3 (vitronectin receptor) (Homo sapiens, UniProt P05106+P06756)
# T1 construct: Human placenta or human platelet αvβ3 (0.1-0.3 mg/mL) in buffer T; from tissue; host or cells: human placenta or human platelets
# Test: Solid-Phase [3H]-SK&F-107260 Binding to αvβ3
# Conditions: human placenta or human platelet αvβ3; competition with 5.0 nM [3H]-SK&F-107260; Ki=IC50/(1+L/Kd)
# Experimental: 0.1-0.2 μg of αvβ3 was added per well. The plates were incubated overnight at 4° C. At the time of the experiment, the wells were washed once with buffer A and were incubated with 0.1 mL of 3.5% bovine serum albumin in the same buffer for 1 hr at room temperature. Following incubation the wells were aspirated completely and washed twice with 0.2 mL buffer A.
# Compound were dissolved in 100% DMSO to give a 2 mM stock solution, which was diluted with binding buffer (15 mM Tris-HCl (pH 7.4), 100 mM NaCl, 1 mM CaCl2, 1 mM MnCl2, 1 mM MgCl2) to a final compound concentration of 100 μM. This solution is then diluted to the required final compound concentration.
# The plates were incubated for 1 hr at room temperature. Following incubation the wells were aspirated completely and washed once with 0.2 mL of ice cold buffer A in a well-to-well fashion.
# T1 sequence (P06756 31-889 limits assumed): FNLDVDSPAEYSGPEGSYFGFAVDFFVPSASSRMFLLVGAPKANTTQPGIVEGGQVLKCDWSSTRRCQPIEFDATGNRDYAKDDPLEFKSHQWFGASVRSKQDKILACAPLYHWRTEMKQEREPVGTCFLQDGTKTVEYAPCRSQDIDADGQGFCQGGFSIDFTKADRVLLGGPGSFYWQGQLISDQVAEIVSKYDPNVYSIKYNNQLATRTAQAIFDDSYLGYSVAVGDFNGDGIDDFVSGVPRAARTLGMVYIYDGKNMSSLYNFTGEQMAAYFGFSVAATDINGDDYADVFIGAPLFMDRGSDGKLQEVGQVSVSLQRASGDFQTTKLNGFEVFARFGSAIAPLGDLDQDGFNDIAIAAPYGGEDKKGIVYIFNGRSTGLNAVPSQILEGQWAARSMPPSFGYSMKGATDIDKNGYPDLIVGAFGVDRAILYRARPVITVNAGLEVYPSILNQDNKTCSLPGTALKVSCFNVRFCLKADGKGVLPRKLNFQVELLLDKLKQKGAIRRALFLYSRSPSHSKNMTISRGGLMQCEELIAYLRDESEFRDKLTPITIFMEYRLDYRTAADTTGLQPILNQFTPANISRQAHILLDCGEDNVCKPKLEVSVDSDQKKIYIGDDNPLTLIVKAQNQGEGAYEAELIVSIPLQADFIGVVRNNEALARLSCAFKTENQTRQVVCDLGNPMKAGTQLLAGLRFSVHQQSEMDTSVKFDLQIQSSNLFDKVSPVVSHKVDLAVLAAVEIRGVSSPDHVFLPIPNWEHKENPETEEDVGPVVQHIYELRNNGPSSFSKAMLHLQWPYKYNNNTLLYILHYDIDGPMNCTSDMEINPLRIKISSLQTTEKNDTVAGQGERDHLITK
# T1 sequence (P06756 891-1048 partner limits assumed): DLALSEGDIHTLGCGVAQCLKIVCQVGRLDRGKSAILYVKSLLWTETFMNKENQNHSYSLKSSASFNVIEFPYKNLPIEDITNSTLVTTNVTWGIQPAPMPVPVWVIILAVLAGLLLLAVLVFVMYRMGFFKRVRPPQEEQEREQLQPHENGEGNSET
# T1 sequence (P05106 27-788): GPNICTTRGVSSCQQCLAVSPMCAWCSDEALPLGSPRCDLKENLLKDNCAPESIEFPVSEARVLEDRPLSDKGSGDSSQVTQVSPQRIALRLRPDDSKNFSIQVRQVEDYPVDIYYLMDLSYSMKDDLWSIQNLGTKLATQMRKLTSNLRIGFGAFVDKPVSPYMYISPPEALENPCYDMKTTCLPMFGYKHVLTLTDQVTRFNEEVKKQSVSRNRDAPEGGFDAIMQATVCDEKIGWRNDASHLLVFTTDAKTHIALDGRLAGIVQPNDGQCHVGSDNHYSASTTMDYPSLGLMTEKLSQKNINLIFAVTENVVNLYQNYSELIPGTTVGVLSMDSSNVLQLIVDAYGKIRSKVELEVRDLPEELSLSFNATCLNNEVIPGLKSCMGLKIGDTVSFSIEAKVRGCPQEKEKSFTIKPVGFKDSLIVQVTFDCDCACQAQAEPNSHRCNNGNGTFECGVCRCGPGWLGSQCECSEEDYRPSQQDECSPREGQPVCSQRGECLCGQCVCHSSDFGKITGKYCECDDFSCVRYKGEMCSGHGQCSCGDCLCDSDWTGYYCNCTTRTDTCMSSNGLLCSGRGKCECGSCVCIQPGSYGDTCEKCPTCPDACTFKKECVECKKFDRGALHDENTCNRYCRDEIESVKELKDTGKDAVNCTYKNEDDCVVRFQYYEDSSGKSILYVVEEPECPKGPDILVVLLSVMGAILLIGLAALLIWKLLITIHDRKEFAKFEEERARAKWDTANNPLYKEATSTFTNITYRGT
compound,measurement,value
"O=C(O)C[C@@H]1Cc2ccc(OCCc3ccc4c(n3)NCCC4)cc2Cc2ccccc21 [Example 1, (S)-10,11-dihydro-3-[2-(5,6,7,8-tetrahydro-1,8-naphthyridin-2-yl)-1-ethoxy]-5H-dibenzo[a,d]cycloheptene-10-acetic acid]",Ki,~1.7 nM
